Source: publication PMC3399817 (PLoS ONE, 2012)

Key:
Experiment in all cases: KINOMEscan
Format in all cases: binding
[1] = target: T1, HPK1 (Homo sapiens, UniProt Q92918); settings: HPK1, 1 uM
T1 construct: purchased Ambit KINOMEscan (DiscoverX)
Procedure, shortened: (§1)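 Compounds were each tested at a single concentration of 1 μM in a binding-based kinase panel.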

[2] = target: T2, EPHA2 (Homo sapiens, UniProt P29317); settings: EPHA2, 1 uM
T2 construct: purchased Ambit KINOMEscan (DiscoverX)
Procedure, shortened: as §1

[3] = target: T3, JNK1 (Homo sapiens, UniProt P45983); settings: JNK1, 1 uM
T3 construct: purchased Ambit KINOMEscan (DiscoverX)
Procedure, shortened: as §1

[4] = target: T4, MEK1 (Homo sapiens, UniProt Q02750); settings: MEK1, 1 uM
T4 construct: purchased Ambit KINOMEscan (DiscoverX)
T4 sequence (Q02750 whole entry): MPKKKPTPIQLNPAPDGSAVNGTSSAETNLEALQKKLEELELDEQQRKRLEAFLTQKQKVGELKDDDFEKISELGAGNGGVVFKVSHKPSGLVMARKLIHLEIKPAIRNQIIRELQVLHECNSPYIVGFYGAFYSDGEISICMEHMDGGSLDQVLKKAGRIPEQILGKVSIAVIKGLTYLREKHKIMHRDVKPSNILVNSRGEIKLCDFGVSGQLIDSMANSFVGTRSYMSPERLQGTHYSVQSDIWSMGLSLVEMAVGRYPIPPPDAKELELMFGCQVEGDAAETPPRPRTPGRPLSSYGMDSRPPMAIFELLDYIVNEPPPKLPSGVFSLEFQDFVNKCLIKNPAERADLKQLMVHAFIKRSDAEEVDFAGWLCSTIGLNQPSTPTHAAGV
Procedure, shortened: as §1

[5] = target: T5, PKAC-alpha (Homo sapiens, UniProt P17612); settings: 1 uM
T5 construct: purchased Ambit KINOMEscan (DiscoverX)
Procedure, shortened: as §1

[6] = target: T6, MEK3 (Homo sapiens, UniProt P46734); settings: MEK3, 1 uM
T6 construct: purchased Ambit KINOMEscan (DiscoverX)
Procedure, shortened: as §1

[7] = target: T7, PIP5K2B (Homo sapiens, UniProt P78356); settings: 1 uM
T7 construct: purchased Ambit KINOMEscan (DiscoverX)
Procedure, shortened: as §1

[8] = target: T8, ROCK1 (Homo sapiens, UniProt Q13464); settings: for % binding compared to no inhibitor control: ROCK1, 1 uM
T8 construct: purchased Ambit KINOMEscan (DiscoverX)
T8 sequence (Q13464 whole entry): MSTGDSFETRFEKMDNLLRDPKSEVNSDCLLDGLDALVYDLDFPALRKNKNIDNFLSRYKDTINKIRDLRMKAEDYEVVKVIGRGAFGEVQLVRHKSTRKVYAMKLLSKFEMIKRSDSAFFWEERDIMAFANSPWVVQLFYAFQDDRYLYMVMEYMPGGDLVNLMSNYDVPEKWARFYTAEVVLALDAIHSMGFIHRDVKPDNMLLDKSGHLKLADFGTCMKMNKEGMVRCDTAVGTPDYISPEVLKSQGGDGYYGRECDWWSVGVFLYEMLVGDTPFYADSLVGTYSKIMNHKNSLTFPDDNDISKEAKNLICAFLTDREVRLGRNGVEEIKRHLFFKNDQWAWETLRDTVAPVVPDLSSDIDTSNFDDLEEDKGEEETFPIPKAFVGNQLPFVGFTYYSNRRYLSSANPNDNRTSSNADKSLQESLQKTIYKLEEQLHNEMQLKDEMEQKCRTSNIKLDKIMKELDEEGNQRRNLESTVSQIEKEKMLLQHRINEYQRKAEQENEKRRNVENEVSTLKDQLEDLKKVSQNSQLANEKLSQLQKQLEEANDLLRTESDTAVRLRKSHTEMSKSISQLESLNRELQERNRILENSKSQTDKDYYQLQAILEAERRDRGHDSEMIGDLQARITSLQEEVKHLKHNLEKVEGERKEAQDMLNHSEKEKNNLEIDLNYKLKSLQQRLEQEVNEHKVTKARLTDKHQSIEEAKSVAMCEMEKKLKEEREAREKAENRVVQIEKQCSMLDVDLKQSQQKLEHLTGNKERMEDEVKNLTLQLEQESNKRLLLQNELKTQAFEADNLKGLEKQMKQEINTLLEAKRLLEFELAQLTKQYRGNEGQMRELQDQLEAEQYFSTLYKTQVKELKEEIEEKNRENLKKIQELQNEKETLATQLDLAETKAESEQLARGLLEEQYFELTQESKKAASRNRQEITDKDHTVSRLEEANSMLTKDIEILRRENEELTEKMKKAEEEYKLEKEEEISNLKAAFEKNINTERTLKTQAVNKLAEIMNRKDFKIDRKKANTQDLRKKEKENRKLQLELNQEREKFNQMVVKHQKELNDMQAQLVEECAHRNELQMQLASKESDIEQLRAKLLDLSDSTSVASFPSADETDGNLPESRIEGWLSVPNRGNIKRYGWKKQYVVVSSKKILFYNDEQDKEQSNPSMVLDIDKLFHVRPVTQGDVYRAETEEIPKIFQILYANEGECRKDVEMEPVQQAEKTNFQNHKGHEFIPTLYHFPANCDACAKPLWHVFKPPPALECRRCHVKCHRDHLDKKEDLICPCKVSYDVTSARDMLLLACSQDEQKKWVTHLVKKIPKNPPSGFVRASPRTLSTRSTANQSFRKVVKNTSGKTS
Procedure, shortened: as §1

[9] = target: T9, CLK4 (Homo sapiens, UniProt Q9HAZ1); settings: CLK4, 1 uM
T9 construct: purchased Ambit KINOMEscan (DiscoverX)
T9 sequence (Q9HAZ1 whole entry): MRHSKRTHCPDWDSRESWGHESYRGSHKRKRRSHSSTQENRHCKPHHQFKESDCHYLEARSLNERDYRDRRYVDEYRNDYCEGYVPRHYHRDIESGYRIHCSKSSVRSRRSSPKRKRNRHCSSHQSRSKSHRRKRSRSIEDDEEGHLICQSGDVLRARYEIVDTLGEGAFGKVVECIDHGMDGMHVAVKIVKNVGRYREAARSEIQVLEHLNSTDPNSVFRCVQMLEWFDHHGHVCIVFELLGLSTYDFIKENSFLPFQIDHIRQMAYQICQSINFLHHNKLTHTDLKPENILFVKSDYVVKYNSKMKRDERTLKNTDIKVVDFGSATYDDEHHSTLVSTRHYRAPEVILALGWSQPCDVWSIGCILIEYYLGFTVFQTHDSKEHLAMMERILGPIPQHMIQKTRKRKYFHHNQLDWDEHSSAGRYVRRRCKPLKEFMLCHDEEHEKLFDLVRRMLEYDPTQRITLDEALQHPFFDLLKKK
Procedure, shortened: as §1

[10] = target: T10, MAP3K15 (Homo sapiens, UniProt Q6ZN16); settings: MAP3K15, 1 uM
T10 construct: purchased Ambit KINOMEscan (DiscoverX)
Procedure, shortened: as §1

[11] = target: T11, BMPR1A (Homo sapiens, UniProt P36894); settings: 1 uM
T11 construct: purchased Ambit KINOMEscan (DiscoverX)
Procedure, shortened: as §1

[12] = target: T12, PAK6 (Homo sapiens, UniProt Q9NQU5); settings: PAK6, 1 uM
T12 construct: purchased Ambit KINOMEscan (DiscoverX)
Procedure, shortened: as §1

[13] = target: T13, ABL2 (Homo sapiens, UniProt P42684); settings: ABL2, 1 uM
T13 construct: purchased Ambit KINOMEscan (DiscoverX)
Procedure, shortened: as §1

[14] = target: T14, MET(Y1235D) (Homo sapiens, UniProt P08581, Y1235D); settings: 1 uM
T14 construct: purchased Ambit KINOMEscan (DiscoverX)
Procedure, shortened: as §1

[15] = target: T15, YANK2 (Homo sapiens, UniProt Q9NY57); settings: YANK2, 1 uM
T15 construct: purchased Ambit KINOMEscan (DiscoverX)
Procedure, shortened: as §1

[16] = target: T16, FLT1 (Homo sapiens, UniProt P17948); settings: FLT1, 1 uM
T16 construct: purchased Ambit KINOMEscan (DiscoverX)
Procedure, shortened: as §1

[17] = target: T17, AURKC (Homo sapiens, UniProt Q9UQB9); settings: 1 uM
T17 construct: purchased Ambit KINOMEscan (DiscoverX)
Procedure, shortened: as §1

[18] = target: T18, RPS6KA4(Kin.Dom.1-N-terminal) (Homo sapiens, UniProt O75676); settings: 1 uM
T18 construct: RPS6KA4(Kin.Dom.1-N-terminal); purchased Ambit KINOMEscan (DiscoverX)
Procedure, shortened: as §1

[19] = target: T19, PKN1 (Homo sapiens, UniProt Q16512); settings: PKN1, 1 uM
T19 construct: purchased Ambit KINOMEscan (DiscoverX)
Procedure, shortened: as §1

[20] = target: T20, FGR (Homo sapiens, UniProt P09769); settings: 1 uM
T20 construct: purchased Ambit KINOMEscan (DiscoverX)
Procedure, shortened: as §1

[21] = target: T21, DCAMKL1 (Homo sapiens, UniProt O15075); settings: DCAMKL1, 1 uM
T21 construct: purchased Ambit KINOMEscan (DiscoverX)
Procedure, shortened: as §1

[22] = target: T22, CHEK2 (Homo sapiens, UniProt O96017); settings: CHEK2, 1 uM
T22 construct: purchased Ambit KINOMEscan (DiscoverX)
Procedure, shortened: as §1

[23] = target: T23, NEK7 (Homo sapiens, UniProt Q8TDX7); settings: NEK7, 1 uM
T23 construct: purchased Ambit KINOMEscan (DiscoverX)
Procedure, shortened: as §1

[24] = target: T24, ABL1(E255K)-phosphorylated (Homo sapiens, UniProt P00519, E255K); settings: 1 uM
T24 construct: purchased Ambit KINOMEscan (DiscoverX)
Procedure, shortened: as §1

[25] = target: T25, JNK3 (Homo sapiens, UniProt P53779); settings: JNK3, 1 uM
T25 construct: purchased Ambit KINOMEscan (DiscoverX)
Procedure, shortened: as §1

[26] = target: T26, MAP4K5 (Homo sapiens, UniProt Q9Y4K4); settings: MAP4K5, 1 uM
T26 construct: purchased Ambit KINOMEscan (DiscoverX)
T26 sequence (Q9Y4K4 whole entry): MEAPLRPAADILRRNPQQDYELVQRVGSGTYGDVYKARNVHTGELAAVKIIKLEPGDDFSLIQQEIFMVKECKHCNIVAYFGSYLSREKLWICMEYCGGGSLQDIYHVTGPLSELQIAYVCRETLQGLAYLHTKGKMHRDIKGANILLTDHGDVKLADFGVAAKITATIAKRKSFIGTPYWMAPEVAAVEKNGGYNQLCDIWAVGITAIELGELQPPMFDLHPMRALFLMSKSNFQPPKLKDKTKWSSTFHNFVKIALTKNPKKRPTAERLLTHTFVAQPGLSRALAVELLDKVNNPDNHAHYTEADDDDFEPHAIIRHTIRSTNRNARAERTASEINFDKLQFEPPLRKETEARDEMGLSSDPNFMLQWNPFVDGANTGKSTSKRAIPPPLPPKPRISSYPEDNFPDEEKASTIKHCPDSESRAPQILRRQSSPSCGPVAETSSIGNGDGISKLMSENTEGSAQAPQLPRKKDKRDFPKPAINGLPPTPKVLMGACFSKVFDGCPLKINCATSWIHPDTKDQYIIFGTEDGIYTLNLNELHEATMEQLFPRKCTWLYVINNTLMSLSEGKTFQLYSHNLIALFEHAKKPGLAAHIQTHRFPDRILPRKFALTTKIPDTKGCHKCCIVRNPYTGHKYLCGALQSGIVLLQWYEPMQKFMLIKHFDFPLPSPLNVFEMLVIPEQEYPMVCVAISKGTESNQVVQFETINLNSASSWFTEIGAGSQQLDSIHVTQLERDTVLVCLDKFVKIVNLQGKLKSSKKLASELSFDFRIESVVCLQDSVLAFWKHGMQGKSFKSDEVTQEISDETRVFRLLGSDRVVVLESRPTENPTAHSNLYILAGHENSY
Procedure, shortened: as §1

[27] = target: T27, MEK2 (Homo sapiens, UniProt P36507); settings: MEK2, 1 uM
T27 construct: purchased Ambit KINOMEscan (DiscoverX)
Procedure, shortened: as §1

[28] = target: T28, EPHA8 (Homo sapiens, UniProt P29322); settings: EPHA8, 1 uM
T28 construct: purchased Ambit KINOMEscan (DiscoverX)
Procedure, shortened: as §1

[29] = target: T29, MELK (Homo sapiens, UniProt Q14680); settings: 1 uM
T29 construct: purchased Ambit KINOMEscan (DiscoverX)
Procedure, shortened: as §1

[30] = target: T30, MARK1 (Homo sapiens, UniProt Q9P0L2); settings: MARK1, 1 uM
T30 construct: purchased Ambit KINOMEscan (DiscoverX)
Procedure, shortened: as §1

[31] = target: T31, DRAK1 (Homo sapiens, UniProt Q9UEE5); settings: DRAK1, 1 uM
T31 construct: purchased Ambit KINOMEscan (DiscoverX)
T31 sequence (Q9UEE5 whole entry): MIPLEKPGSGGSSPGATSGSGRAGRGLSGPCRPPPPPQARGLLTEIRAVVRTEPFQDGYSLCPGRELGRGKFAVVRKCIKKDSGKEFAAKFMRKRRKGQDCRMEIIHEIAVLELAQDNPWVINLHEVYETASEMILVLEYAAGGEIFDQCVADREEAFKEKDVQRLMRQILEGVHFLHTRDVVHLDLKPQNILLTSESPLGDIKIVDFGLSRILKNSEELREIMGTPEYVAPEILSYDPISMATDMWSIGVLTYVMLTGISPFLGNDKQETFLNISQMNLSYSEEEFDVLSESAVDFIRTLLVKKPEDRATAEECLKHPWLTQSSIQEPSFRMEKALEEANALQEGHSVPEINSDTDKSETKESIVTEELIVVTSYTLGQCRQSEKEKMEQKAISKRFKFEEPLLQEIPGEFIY
Procedure, shortened: as §1

[32] = target: T32, MARK4 (Homo sapiens, UniProt Q96L34); settings: MARK4, 1 uM
T32 construct: purchased Ambit KINOMEscan (DiscoverX)
Procedure, shortened: as §1

[33] = target: T33, SIK2 (Homo sapiens, UniProt Q9H0K1); settings: SIK2, 1 uM
T33 construct: purchased Ambit KINOMEscan (DiscoverX)
Procedure, shortened: as §1

[34] = target: T34, LTK (Homo sapiens, UniProt P29376); settings: 1 uM
T34 construct: purchased Ambit KINOMEscan (DiscoverX)
Procedure, shortened: as §1

[35] = target: T35, EGFR(E746-A750del) (Homo sapiens, UniProt P00533, DEL746-750); settings: 1 uM
T35 construct: purchased Ambit KINOMEscan (DiscoverX)
T35 sequence (P00533 with tags, fused parts or gaps DEL746-750 limits assumed): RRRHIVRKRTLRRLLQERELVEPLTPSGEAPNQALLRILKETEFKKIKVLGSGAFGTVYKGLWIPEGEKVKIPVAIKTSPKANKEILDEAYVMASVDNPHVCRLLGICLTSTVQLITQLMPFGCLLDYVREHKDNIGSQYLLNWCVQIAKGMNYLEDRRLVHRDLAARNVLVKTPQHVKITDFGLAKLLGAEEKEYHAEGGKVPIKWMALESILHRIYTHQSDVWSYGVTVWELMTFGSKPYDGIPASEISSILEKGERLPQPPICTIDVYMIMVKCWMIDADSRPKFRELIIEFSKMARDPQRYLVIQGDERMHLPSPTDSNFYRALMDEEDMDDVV
Procedure, shortened: as §1

[36] = target: T36, CLK3 (Homo sapiens, UniProt P49761); settings: CLK3, 1 uM
T36 construct: purchased Ambit KINOMEscan (DiscoverX)
Procedure, shortened: as §1

[37] = target: T37, YES (Homo sapiens, UniProt P07947); settings: 1 uM
T37 construct: purchased Ambit KINOMEscan (DiscoverX)
Procedure, shortened: as §1

[38] = target: T38, EGFR(G719C) (Homo sapiens, UniProt P00533, G719C); settings: 1 uM
T38 construct: purchased Ambit KINOMEscan (DiscoverX)
T38 sequence (P00533 25-1210 G719C): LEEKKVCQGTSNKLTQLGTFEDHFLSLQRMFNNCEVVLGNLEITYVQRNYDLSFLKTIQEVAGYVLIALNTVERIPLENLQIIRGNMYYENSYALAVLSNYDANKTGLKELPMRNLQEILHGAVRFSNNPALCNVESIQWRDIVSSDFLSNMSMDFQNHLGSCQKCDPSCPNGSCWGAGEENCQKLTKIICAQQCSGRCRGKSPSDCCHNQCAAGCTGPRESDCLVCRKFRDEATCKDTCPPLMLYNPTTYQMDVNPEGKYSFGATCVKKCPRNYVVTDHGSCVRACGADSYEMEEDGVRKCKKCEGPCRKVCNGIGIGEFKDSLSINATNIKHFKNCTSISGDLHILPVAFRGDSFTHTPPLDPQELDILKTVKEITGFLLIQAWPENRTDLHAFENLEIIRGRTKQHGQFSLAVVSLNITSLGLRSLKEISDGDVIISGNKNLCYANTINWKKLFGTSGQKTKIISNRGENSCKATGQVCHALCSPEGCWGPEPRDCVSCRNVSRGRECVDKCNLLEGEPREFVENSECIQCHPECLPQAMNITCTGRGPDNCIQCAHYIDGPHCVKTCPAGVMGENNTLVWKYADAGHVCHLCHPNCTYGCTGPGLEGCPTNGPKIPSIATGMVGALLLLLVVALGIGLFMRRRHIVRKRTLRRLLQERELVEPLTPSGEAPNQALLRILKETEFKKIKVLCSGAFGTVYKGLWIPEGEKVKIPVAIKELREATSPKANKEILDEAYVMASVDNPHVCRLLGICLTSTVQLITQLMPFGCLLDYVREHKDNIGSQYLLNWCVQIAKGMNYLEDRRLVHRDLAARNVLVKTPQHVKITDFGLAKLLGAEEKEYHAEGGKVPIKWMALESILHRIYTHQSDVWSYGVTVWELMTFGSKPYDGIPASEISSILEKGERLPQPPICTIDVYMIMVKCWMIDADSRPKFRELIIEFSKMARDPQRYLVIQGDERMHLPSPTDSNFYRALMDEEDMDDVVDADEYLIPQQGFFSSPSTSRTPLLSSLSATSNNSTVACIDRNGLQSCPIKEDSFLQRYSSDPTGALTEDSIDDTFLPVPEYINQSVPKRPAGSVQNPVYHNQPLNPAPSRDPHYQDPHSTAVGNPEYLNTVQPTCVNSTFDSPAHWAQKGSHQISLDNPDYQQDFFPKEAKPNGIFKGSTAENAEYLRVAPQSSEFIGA
Procedure, shortened: as §1

COc1ccccc1Nc1nc(-c2ccc(OC)c(OC)c2)cc2nccn12 [BAY derivative 6]
% binding compared to no inhibitor control [1]: 100% | % binding compared to no inhibitor control [2]: 89% | % binding compared to no inhibitor control [3]: 95% | % binding compared to no inhibitor control [4]: 100% | % binding compared to no inhibitor control [5]: 72% | % binding compared to no inhibitor control [6]: 94% | % binding compared to no inhibitor control [7]: 100% | % binding compared to no inhibitor control [8]: 81% | % binding compared to no inhibitor control [9]: 100% | % binding compared to no inhibitor control [10]: 86% | % binding compared to no inhibitor control [11]: 100% | % binding compared to no inhibitor control [12]: 99% | % binding compared to no inhibitor control [13]: 93% | % binding compared to no inhibitor control [14]: 100% | % binding compared to no inhibitor control [15]: 100% | % binding compared to no inhibitor control [16]: 100% | % binding compared to no inhibitor control [17]: 100% | % binding compared to no inhibitor control [18]: 74% | % binding compared to no inhibitor control [19]: 100% | % binding compared to no inhibitor control [20]: 54% | % binding compared to no inhibitor control [21]: 87% | % binding compared to no inhibitor control [22]: 97% | % binding compared to no inhibitor control [23]: 100% | % binding compared to no inhibitor control [24]: 60% | % binding compared to no inhibitor control [25]: 100% | % binding compared to no inhibitor control [26]: 100% | % binding compared to no inhibitor control [27]: 100% | % binding compared to no inhibitor control [28]: 100% | % binding compared to no inhibitor control [29]: 91% | % binding compared to no inhibitor control [30]: 100% | % binding compared to no inhibitor control [31]: 100% | % binding compared to no inhibitor control [32]: 75% | % binding compared to no inhibitor control [33]: 64% | % binding compared to no inhibitor control [34]: 30% | % binding compared to no inhibitor control [35]: 75% | % binding compared to no inhibitor control [36]: 100% | % binding compared to no inhibitor control [37]: 57% | % binding compared to no inhibitor control [38]: 100%

COc1ccc(-c2cc3nccn3c(Nc3ncccc3C(N)=O)n2)cc1OC.Cl.Cl [BAY61-3606, 2-[7-(3,4-dimethoxyphenyl)-imidazo [1,2-c]pyrimidin-5-ylamino] nicotinamide dihydrochloride, reference compound]
% binding compared to no inhibitor control [1]: 43% | % binding compared to no inhibitor control [2]: 100% | % binding compared to no inhibitor control [3]: 18% | % binding compared to no inhibitor control [4]: 100% | % binding compared to no inhibitor control [5]: 90% | % binding compared to no inhibitor control [6]: 21% | % binding compared to no inhibitor control [7]: 100% | % binding compared to no inhibitor control [8]: 3.2% | % inhibition ATP binding ([8]; ROCK1, KINOMEscan, 1 μM): 96.8% | % binding compared to no inhibitor control [9]: 11% | % binding compared to no inhibitor control [10]: 100% | % binding compared to no inhibitor control [11]: 79% | % binding compared to no inhibitor control [12]: 65% | % binding compared to no inhibitor control [13]: 95% | % binding compared to no inhibitor control [14]: 100% | % binding compared to no inhibitor control [15]: 86% | % binding compared to no inhibitor control [16]: 100% | % binding compared to no inhibitor control [17]: 92% | % binding compared to no inhibitor control [18]: 32% | % binding compared to no inhibitor control [19]: 47% | % binding compared to no inhibitor control [20]: 80% | % binding compared to no inhibitor control [21]: 93% | % binding compared to no inhibitor control [22]: 100% | % binding compared to no inhibitor control [23]: 60% | % binding compared to no inhibitor control [24]: 100% | % binding compared to no inhibitor control [25]: 41% | % binding compared to no inhibitor control [26]: 80% | % binding compared to no inhibitor control [27]: 86% | % binding compared to no inhibitor control [28]: 83% | % binding compared to no inhibitor control [29]: 87% | % binding compared to no inhibitor control [30]: 100% | % binding compared to no inhibitor control [31]: 57% | % binding compared to no inhibitor control [32]: 88% | % binding compared to no inhibitor control [33]: 100% | % binding compared to no inhibitor control [34]: 46% | % binding compared to no inhibitor control [35]: 49% | % binding compared to no inhibitor control [36]: 100% | % binding compared to no inhibitor control [37]: 96% | % binding compared to no inhibitor control [38]: 68%
